Reference: ChEMBL document CHEMBL3526122, “Identification of UDP-glucuronosyltransferases responsible for the glucuronidation of darexaban, an oral factor Xa inhibitor, in human liver and intestine” (Drug Metab Dispos, 2012)

Legend:
Assay type in all cases: ADME
[1] = tested on: Liver microsome; test: Intrinsic clearance in human liver microsomes assessed per mg of protein at 1 to 250 uM after 10 mins in presence of UDPGA
[2] = biological target: T1, UDP-glucuronosyltransferase 1A9 (Homo sapiens, UniProt O60656); test: Activity of human recombinant UGT1A9 expressed in baculovirus-infected insect cells assessed as unbound intrinsic clearance for enzyme-mediated glucuronidation per mg of protein after 5 mins by Michaelis-Menten plot analysis in presence of UDPGA and 0.5% fatty acid free BSA
T1 sequence (O60656 whole entry): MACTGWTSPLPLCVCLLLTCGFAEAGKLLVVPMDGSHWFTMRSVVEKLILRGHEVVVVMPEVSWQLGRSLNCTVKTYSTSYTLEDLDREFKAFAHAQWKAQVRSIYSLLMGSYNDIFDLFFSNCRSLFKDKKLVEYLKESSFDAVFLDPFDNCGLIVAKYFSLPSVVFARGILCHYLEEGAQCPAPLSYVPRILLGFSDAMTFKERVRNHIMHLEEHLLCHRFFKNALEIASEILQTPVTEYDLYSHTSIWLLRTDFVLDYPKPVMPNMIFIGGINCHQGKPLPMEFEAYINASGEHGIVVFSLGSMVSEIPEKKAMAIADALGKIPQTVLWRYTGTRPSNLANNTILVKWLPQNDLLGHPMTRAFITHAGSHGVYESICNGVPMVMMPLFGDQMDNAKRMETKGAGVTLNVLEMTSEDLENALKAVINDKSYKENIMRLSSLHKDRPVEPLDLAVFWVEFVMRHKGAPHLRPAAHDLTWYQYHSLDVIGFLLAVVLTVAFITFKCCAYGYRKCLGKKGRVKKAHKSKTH

[3] = biological target: T2, UDP-glucuronosyltransferase 2B17 (Homo sapiens, UniProt O75795); test: Activity of human recombinant UGT2B17 expressed in baculovirus-infected insect cells assessed as enzyme-mediated glucuronidation per mg of protein after 10 mins in presence of UDPGA
T2 sequence (O75795 whole entry): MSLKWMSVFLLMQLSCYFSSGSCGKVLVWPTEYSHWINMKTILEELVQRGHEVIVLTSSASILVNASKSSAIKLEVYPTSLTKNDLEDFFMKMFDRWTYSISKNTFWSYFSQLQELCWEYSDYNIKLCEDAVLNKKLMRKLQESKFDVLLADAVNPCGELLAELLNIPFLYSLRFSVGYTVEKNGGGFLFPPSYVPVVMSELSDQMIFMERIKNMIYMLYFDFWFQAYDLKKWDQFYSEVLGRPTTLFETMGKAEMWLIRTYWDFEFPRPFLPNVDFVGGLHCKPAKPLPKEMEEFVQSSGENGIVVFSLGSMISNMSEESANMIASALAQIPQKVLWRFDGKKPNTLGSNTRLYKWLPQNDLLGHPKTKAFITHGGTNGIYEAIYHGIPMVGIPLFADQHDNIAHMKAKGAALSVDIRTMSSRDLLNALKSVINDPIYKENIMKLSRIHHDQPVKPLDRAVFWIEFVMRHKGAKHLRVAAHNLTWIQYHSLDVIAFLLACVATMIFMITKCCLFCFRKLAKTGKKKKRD

[4] = biological target: T3, UDP-glucuronosyltransferase 1A8 (Homo sapiens, UniProt Q9HAW9); test: Activity of human recombinant UGT1A8 expressed in baculovirus-infected insect cells assessed as intrinsic clearance for enzyme-mediated glucuronide formation per mg of protein at 1 to 250 uM after 10 mins in presence of UDPGA
T3 sequence (Q9HAW9 whole entry): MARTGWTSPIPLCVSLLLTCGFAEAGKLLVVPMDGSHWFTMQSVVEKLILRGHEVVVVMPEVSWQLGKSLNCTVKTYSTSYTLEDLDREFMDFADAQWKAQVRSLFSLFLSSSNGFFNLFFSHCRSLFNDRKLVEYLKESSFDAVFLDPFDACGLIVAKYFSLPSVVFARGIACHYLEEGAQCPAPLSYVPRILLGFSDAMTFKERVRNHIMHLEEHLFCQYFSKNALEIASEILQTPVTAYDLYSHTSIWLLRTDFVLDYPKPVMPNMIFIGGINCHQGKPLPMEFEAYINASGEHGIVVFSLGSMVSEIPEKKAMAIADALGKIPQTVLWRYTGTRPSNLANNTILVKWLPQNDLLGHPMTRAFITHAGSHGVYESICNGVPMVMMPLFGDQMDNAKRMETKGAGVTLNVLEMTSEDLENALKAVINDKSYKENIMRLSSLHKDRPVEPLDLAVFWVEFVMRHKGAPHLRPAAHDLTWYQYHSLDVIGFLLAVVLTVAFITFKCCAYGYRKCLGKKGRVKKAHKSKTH

[5] = biological target: T4, UDP-glucuronosyltransferase 1A7 (Homo sapiens, UniProt Q9HAW7); test: Activity of human recombinant UGT1A7 expressed in baculovirus-infected insect cells assessed as enzyme-mediated glucuronidation per mg of protein after 10 mins in presence of UDPGA
T4 sequence (Q9HAW7 whole entry): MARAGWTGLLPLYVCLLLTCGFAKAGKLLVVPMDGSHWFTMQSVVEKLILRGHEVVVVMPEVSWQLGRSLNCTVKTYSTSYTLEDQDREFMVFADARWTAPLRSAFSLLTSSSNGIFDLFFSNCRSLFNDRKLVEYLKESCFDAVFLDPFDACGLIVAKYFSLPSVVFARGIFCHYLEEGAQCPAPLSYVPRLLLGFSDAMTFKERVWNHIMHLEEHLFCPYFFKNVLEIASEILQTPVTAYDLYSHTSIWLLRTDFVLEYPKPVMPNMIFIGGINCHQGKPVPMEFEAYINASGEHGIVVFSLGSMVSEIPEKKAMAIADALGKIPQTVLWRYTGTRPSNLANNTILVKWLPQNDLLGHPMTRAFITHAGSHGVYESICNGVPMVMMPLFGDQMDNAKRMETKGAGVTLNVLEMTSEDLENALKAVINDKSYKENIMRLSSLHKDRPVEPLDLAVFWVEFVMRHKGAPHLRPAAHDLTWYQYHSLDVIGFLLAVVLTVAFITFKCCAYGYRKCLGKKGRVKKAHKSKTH

[6] = tested on: Liver microsome; test: Drug metabolism in human liver microsomes assessed as glucuronidation per mg of protein after 10 mins by Michaelis-Menten plot analysis in presence of UDPGA and 2% fatty acid free BSA
[7] = biological target: T3, UDP-glucuronosyltransferase 1A8; test: Activity of human recombinant UGT1A8 expressed in baculovirus-infected insect cells assessed as enzyme-mediated glucuronidation per mg of protein after 10 mins in presence of UDPGA

CLint [1]: 8.71 µL/min/mg
CL free [2]: 257 µL/min/mg
Drug metabolism [3]: < 0.01 nmol/min/mg
clearance [4]: 51.5 µL/min/mg
Drug metabolism [5]: 0.251 nmol/min/mg
Vmax [6]: 3.14 nmol/min/mg
Drug metabolism [7]: 0.393 nmol/min/mg
SMILES: COc1ccc(C(=O)Nc2cccc(O)c2NC(=O)c2ccc(N3CCCN(C)CC3)cc2)cc1.O=C(O)CCC(=O)O
